The results in this text go back to patent US20120196854A1, “PHARMACEUTICAL COMPOSITION COMPRISING AROMATIC HETEROCYCLIC COMPOUND” (Kyowa Hakko Kirin Co., Ltd., priority 2009, published 2012).

The experiment has as its target T1, human H-PGDS (Homo sapiens, UniProt O60760).
T1 construct: purchased Cayman Chemical 10006593
The experiment is described as follows: H-PGDS inhibitory activity (Prostaglandin D Synthase Inhibitor Screening Assay Kit). The format is biochemical. Particulars: at a concentration of 1 μmol/L; read-out: H-PGDS inhibitory rate. The procedure: The H-PGDS inhibitory activity of Compound (I) was calculated according to the following protocol attached to Prostaglandin D Synthase Inhibitor Screening Assay Kit (Cat. No. 10006595, Cayman Chemical, Ann Arbor, Mich., USA).
(§1) First, to a 96-well round-bottom plate (Cat. No. 3882-096, Asahi Techno Glass, Chiba), 60 μL/well of an enzyme assay buffer (0.1 mol/L Tris-HCl, pH 8.0), 10 μL/well of a human H-PGDS [Cat. No. 10006593 (human), Cayman Chemical, Ann Arbor, Mich., USA] at a final concentration of 0.125 μg/mL, 10 μL/well of reduced glutathione at a final concentration of 1 mmol/L, and 10 μL/well of Compound (I) diluted with the enzyme assay buffer were added and lightly mixed. The plate was allowed to stand at room temperature for 10 minutes, and then 10 μL/well of prostaglandin H2(PGH2) (Cat. No. 17020, Cayman Chemical) at a final concentration of 50 μmol/L was added thereto to start enzyme reaction. The reaction was allowed to proceed with mixing by a plate mixer for 1 minute. After the enzyme reaction, 10 μL/well of a 4 mg/mL FeCl2-HCl solution prepared by dissolving FeCl2 in 1 mol/L hydrochloric acid was added to stop the reaction and reduce PGH2 simultaneously. The enzyme reaction solution (100 μL/well) was transferred to a 96-well UV-Star half area plate (Cat. No. 675801, Greiner, Frickenhausen, Germany), and measured for absorbance at 232 nm using a microplate reader Power Wave (BioTek Instrument Inc., Winooski, Vt., USA).
The H-PGDS inhibitory activity (inhibitory rate) of Compound (I) was calculated by the following formula.
The H-PGDS inhibitory activity of Compound 133 was calculated according to the following protocol attached to Prostaglandin D Synthase Inhibitor Screening Assay Kit (Cat. No. 10006595, Cayman Chemical, Ann Arbor, Mich., USA).
as §1, with “133” for “(I)”
The H-PGDS inhibitory activity (inhibitory rate) of Compound 133 was calculated according to the method in Test Example 1.

T1 sequence (O60760 whole entry): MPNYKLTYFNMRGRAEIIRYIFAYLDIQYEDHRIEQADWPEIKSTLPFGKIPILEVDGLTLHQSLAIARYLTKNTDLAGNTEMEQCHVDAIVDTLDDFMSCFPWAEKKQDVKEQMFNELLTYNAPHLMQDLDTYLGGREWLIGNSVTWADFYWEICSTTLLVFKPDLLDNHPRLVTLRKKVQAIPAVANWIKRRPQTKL

For `O=C(O)c1cc(-c2ccco2)nc2ccc3nn(-c4ccccc4)nc3c12` [Compound 133, 7-(furan-2-yl)-2-phenyl-2H-[1,2,3]triazolo[4,5-f]quinoline-9-carboxylic acid], the inhibition at 1 µM was found to be 73%.
